# In patent US11911477B2, “Use of fructose in preparing drug for treating ischemic injury” (Beihang University, priority 2021, dated 2024):
# Tests used:
# DIV7 neurons [1] = assay: IPC with fructose pathway inhibitor sorbinil: ATP and NADPH level of DIV7 neurons; type: cell-based, mice; conditions: fructose pathway inhibited by sorbinil, cellular level
# Procedure: Secondly, to further verify effects of the fructose pathway in IPC ischemia protection, a fructose pathway inhibitor sorbinil was added at the cellular level. […] (4) Content of ATP and NADPH: cortical neurons were isolated from P0-P1 suckling mice, the neurons were inoculated on a 7th day by adding a lentiviral transfection protein vector that specifically detects ATP and a lentiviral transfection protein vector iNap that specifically detects NADPH; the neurons were fixated with 4% PFA, subjected to immunofluorescence staining, and data was collected through a confocal microscope, the fluorescence intensity of virus vector protein was counted using ImageJ, and the contents of ATP and NADPH were calculated.
# OGD-injured neurons [2] = assay: CellTiter-Glo Luminescent cell viability of OGD-injured neurons; conditions: OGD 1.5 h, 2 mM, after 24 h, FIG. 13
# Procedure: The CellTiter-Glo® Luminescent cell viability test kit was used: the neuronal cells were cultured using a 96-well plate, and OGD treatment was conducted on neurons for 1.5 h on a 7th day; fructose, fructose-1,6-bisphosphate and glycerol fructose were added each at a concentration of 2 mM; after 24 h, the cell viability was detected by the kit.
# DIV7 neurons [3] = assay: CellTiter-Glo Luminescent cell viability of DIV7 neurons; type: cell-based; conditions: for viability of DIV7 neurons: 0, 1, 2, 4, 6, 8 and 16 mM, each compared with the 0 mM group, FIG. 12
# Source text: Effects of different concentrations of fructose on the viability of DIV7 neurons were studied using a CellTiter-Glo® Luminescent cell viability test kit, and an added concentration of the fructose was explored in the cell system.
# OGD-injured neurons [4] = assay: Survival rate of OGD-treated neurons by MAP2 and DAPI immunofluorescence staining; conditions: OGD 1.5 h, 2 mM, after 24 h, FIG. 14
# Procedure: Immunofluorescence staining method: the neurons were cultured for 7 d, and subjected to OGD treatment for 1.5 h; fructose, fructose-1,6-bisphosphate and glycerol fructose were added each at a concentration of 2 mM; after 24 h, MAP2 and DAPI staining were conducted.
# MCAO rats = assay: MCAO rat model: Longa behavioral score and TTC cerebral infarct area; type: in vivo; conditions: for area of cerebral infarction (TTC staining) / neurobehavioral characteristics (Longa scoring): 24 h
# OGD-injured neurons [5] = assay: ATP and NADPH content of OGD-injured neurons (lentiviral sensors), fructose at different stages; type: cell-based, mice
# Source text: (4) Content of ATP and NADPH: cortical neurons were isolated from P0-P1 suckling mice, the neurons were inoculated on a 7th day by adding a lentiviral transfection protein vector that specifically detects ATP and a lentiviral transfection protein vector iNap that specifically detects NADPH; the neurons were fixated with 4% PFA, subjected to immunofluorescence staining, and data was collected through a confocal microscope, the fluorescence intensity of virus vector protein was counted using ImageJ, and the contents of ATP and NADPH were calculated. By detecting an expression level of the lentiviral transfection protein vector that specifically detects ATP and the lentiviral transfection protein vector iNap that specifically detects NADPH in the primary neuron culture system, the levels are characterized for neuronal energy metabolism and redox metabolism. (2) Content of ATP and NADPH: cortical neurons were isolated from P0-P1 suckling mice, the neurons were inoculated on a 7th day by adding a lentiviral transfection protein vector that specifically detects ATP and a lentiviral transfection protein vector iNap that specifically detects NADPH; the neurons were divided into four groups: a control group, an OGD group (for OGD treatment), an OGD+Fru(per) group (fructose treatment during OGD treatment), and an OGD+Fru(post) group (fructose treatment in a reperfusion stage after OGD treatment). Reperfusion was conducted 24 h after OGD; the neurons were fixated with 4% PFA, subjected to MAP2 immunofluorescence staining to observe the content of ATP and NADPH of the neurons.
# OGD-injured neurons [6] = assay: Survival of OGD-injured neurons (TUNEL and MAP2 staining), fructose at different stages; type: cell-based; conditions: 24 h reperfusion
# Procedure: (1) Cell model: the cerebral ischemic stroke was simulated using an OGD model, DIV7 primary neurons were treated with a glucose-free medium in a hypoxic box (1% O2+5% CO2+94% N2), oxygen glucose deprivation was conducted at 37° C. for 1.5 h, and the primary neurons was cultured in a normal medium for 24 h under normoxic conditions. (3) Survival of neurons: a survival state of neurons was counted by TUNEL staining and immunofluorescence staining; the neuronal cells were subjected to growing on glass coverslips, fixated with 4% PFA for 10 min, washed with PBS, and subjected to incubation in a blocking buffer for 1 h, and a MAP2 primary antibody working solution was added to conduct culture overnight at 4° C.; the cells were washed with PBS, a MAP2 secondary antibody working solution was added to incubate at room temperature for 1 h; the cells were washed with PBS, subjected to TUNEL staining, and a mounting agent containing 4′,6-diamidino-2-phenylindole (DAPI) was added for mounting. Data was collected through a focusing microscope and the number of cell deaths was counted using ImageJ. (1) Neuron survival: DIV7 neurons were divided into four groups: a control group, an OGD group (for OGD treatment), an OGD+Fru(per) group (fructose treatment during OGD treatment), and an OGD+Fru(post) group (fructose treatment in a reperfusion stage after OGD treatment). […]
# [7] = intraperitoneal injection after suture plug removal (MCAO+Fru-2)
# [8] = tail vein injection after suture plug removal (MCAO+Fru-1)
# [9] = fructose added in the OGD phase
# [10] = fructose added in the reperfusion phase
Compound,content of ATP after IPC (DIV7 neurons [1]; FIGS. 4A-B),content of NADPH after IPC (DIV7 neurons [1]; FIGS. 5A-B),cell viability of OGD-injured neurons (OGD-injured neurons [2]),viability of DIV7 neurons (DIV7 neurons [3]),survival rate of neurons after OGD (OGD-injured neurons [4]),"comparison of routes of administration (tail vein vs intraperitoneal) (MCAO rats; MCAO rats, neurobehavior and infarct area)",area of cerebral infarction (TTC staining) (MCAO rats; [7]),neurobehavioral characteristics (Longa scoring) (MCAO rats; [7]),area of cerebral infarction (TTC staining) (MCAO rats; [8]),neurobehavioral characteristics (Longa scoring) (MCAO rats; [8]),"concentration with better effect of improving the activity of DIV7 neuronal cells (DIV7 neurons [3]; different concentrations of fructose, FIG. 11)",ATP production of neurons (OGD-injured neurons [5]; [9]),NADPH production of neurons (OGD-injured neurons [5]; [9]),ATP production of neurons (OGD-injured neurons [5]; [10]),NADPH production of neurons (OGD-injured neurons [5]; [10]),neuronal death rate caused by OGD (OGD-injured neurons [6]; fructose added in the OGD phase (OGD+Fru(per))),neuronal death rate caused by OGD (OGD-injured neurons [6]; fructose added in the reperfusion phase (OGD+Fru(post)))
O=C1NC(=O)[C@@]2(CCOc3ccc(F)cc32)N1 [sorbinil],the IPC no longer increases the contents of ATP and NADPH,the IPC no longer increases the contents of ATP and NADPH,,,,,,,,,,,,,,,
O=C(COP(=O)(O)O)[C@@H](O)[C@H](O)[C@H](O)COP(=O)(O)O [reference compound],,,have a tendency to increase the viability of OGD-injured neurons,can improve neuron viability,can improve the survival rate of the neurons,,,,,,,,,,,,
O=C(CO)[C@@H](O)[C@H](O)[C@H](O)CO [fructose],,,can significantly increase the cell viability of OGD-injured neurons,can significantly enhance viability of the neurons,,tail vein injection is generally better than the intraperitoneal injection,reduce the area of cerebral infarction,can improve the neurobehavioral characteristics of MCAO rats,reduce the area of cerebral infarction,can improve the neurobehavioral characteristics of MCAO rats,1 to 6 mM,can enhance the decrease in ATP and NADPH production of neurons caused by OGD,can enhance the decrease in ATP and NADPH production of neurons caused by OGD,can enhance the decrease in ATP and NADPH production of neurons caused by OGD,can enhance the decrease in ATP and NADPH production of neurons caused by OGD,can reduce the neuronal death rate caused by OGD,can reduce the neuronal death rate caused by OGD
